Here are results for 8 compounds from ChEMBL document CHEMBL1201862, “PubChem BioAssay data set” (2004).

Among the test systems are SF-268; OVCAR-4; HL-60; CCRF-CEM; SF-295; RXF 393; SNB-19; MOLT-4; K562; SK-MEL-2; COLO 205; KM12; SK-MEL-28; KM-20L2; OVCAR-8; UO-31; HCT-15; HCC 2998; SNB-75; NCI-H522.
Assay in all cases: NCI anticancer screen, dose series, 48 h

Several values for one entry are separate records, joined by “and”; a condition that tells them apart may be missing. Identical values can stand only once.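 Where inhibition never reached the appropriate level, the endpoint shown equals the highest concentration tested. Otherwise, values were interpolated linearly from a five-concentration, 48-hour dose response in 96-well plates. Here, GI50 denotes the concentration required for 50% inhibition of growth.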 Activity calls are given as the source filed them. Rule as the data show it: active = GI50 up to about 1.1 µM and inactive = higher.

As for `Cc1ccc(NC(=O)CC/C(CC(=O)C(C)(C)C)=N/NC(=O)c2cc3ccccc3cc2O)cc1C`, the GI50 is 33.3 µM (inactive) in the experiment with SF-268; 30.8 µM (inactive) in the experiment on OVCAR-4; 20.4 µM (inactive) with HL-60; 16.2 µM (inactive) in the experiment with CCRF-CEM; 17.9 µM (inactive) in the experiment on SF-295; 35.2 µM (inactive) in the experiment with RXF 393. Also, the GI50 in the experiment on SNB-19 was 39.5 µM (inactive); in the experiment with MOLT-4 it was 17.7 µM (inactive); in the experiment with K562, > 10 µM (inactive); in the experiment with SK-MEL-2, 32.4 µM (inactive); with COLO 205 it was 39.1 µM (inactive); in the experiment on KM12 it was 36.6 µM (inactive). The GI50 in the experiment with SK-MEL-28 was 80 µM (inactive); with KM-20L2, 34.5 µM (inactive); in the experiment with OVCAR-8 it was 26.8 µM (inactive); with UO-31, 38.6 µM (inactive); with HCT-15 it was 27.7 µM; with HCC 2998, 29.2 µM (inactive).

On to `CCOC(=O)c1ncoc1[C@H]1COC(C)(C)O1`, for which the GI50 in the experiment on SNB-75, in the experiment with SF-268, with OVCAR-4, in the experiment with HL-60, in the experiment with CCRF-CEM and with SF-295 was > 100 µM (inactive) each time. Further, the GI50 with RXF 393, with SNB-19, in the experiment with MOLT-4, in the experiment on NCI-H522, in the experiment on K562 and in the experiment with SK-MEL-2 was > 100 µM (inactive) in each case. Further, the GI50 in the experiment with KM-20L2 is > 100 µM (inactive); with OVCAR-8, > 100 µM (inactive); in the experiment with UO-31, > 100 µM (inactive); in the experiment with HCT-15, above 100 µM; in the experiment with HCC 2998, > 100 µM (inactive).

For `CCCCCCCCCCSCC(CO)NC(=O)/C=C/c1c(C)[nH]c(=O)[nH]c1=O` (stereo not given), the GI50 in the experiment on SNB-75 was 1.39 µM (inactive) and 1.32 µM (inactive); in the experiment with SF-268 it was 684 nM (active) and 723 nM (active); with HL-60, 1.82 µM (inactive) and 1.42 µM (inactive); in the experiment with CCRF-CEM, 259 nM (active) and 258 nM (active); with SF-295 it was 29.1 µM (inactive) and 17.9 µM (inactive); in the experiment with RXF 393, 1.36 µM (inactive) and 2.69 µM (inactive). For the same compound, the GI50 with SNB-19 is 881 nM (active) and 925 nM (active); with MOLT-4 it was 1.22 µM (inactive) and 1.44 µM (inactive); with NCI-H522, 243 nM (active) and 393 nM (active); in the experiment on K562, 908 nM (active) and 1.12 µM (inactive); in the experiment with SK-MEL-2, 1.25 µM (inactive) and 804 nM (active); in the experiment with COLO 205, 762 nM (active) and 1.19 µM (inactive). For the same compound, the GI50 in the experiment on KM12 is 1.42 µM (inactive) and 2.05 µM (inactive); in the experiment on SK-MEL-28, 1.77 µM (inactive) and 1.85 µM (inactive); in the experiment on KM-20L2, 6.46 µM (inactive) and 3.37 µM (inactive); in the experiment on OVCAR-8 it was 1.04 µM (active) and 1.09 µM (active); with UO-31, 10.5 µM (inactive) and 6.84 µM (inactive); in the experiment on HCC 2998 it was 1.08 µM (active) and 1.17 µM (inactive).

With `COc1ccc(C2=N/C(=C\c3ccccc3)C(=O)O2)cc1`, the GI50 was 45.2 µM (inactive) in the experiment on SNB-75; > 100 µM (inactive) in the experiment on SF-268; 37.1 µM (inactive) in the experiment on OVCAR-4; 12.2 µM (inactive) in the experiment on HL-60; 31 µM (inactive) in the experiment on CCRF-CEM; > 100 µM (inactive) with SF-295. The GI50 in the experiment on RXF 393 is > 100 µM (inactive); with SNB-19, 75.7 µM (inactive); with MOLT-4 it was 13.3 µM (inactive); in the experiment on K562 it was 34 µM (inactive); in the experiment with SK-MEL-2, > 100 µM (inactive); with KM12, 36.6 µM (inactive). Moreover, the GI50 with SK-MEL-28 is > 100 µM (inactive); with OVCAR-8, 30.8 µM (inactive); in the experiment with HCT-15, 52.1 µM; in the experiment with HCC 2998 it was 75.9 µM (inactive).

As to `COc1cccc(N2C(=O)CSC2c2c[nH]c3ccccc23)c1` (stereo not given), the GI50 is > 100 µM (inactive) in the experiment on SNB-75; > 100 µM (inactive) with SF-268; 73.6 µM (inactive) with OVCAR-4; > 100 µM (inactive) in the experiment with HL-60; > 100 µM (inactive) in the experiment on CCRF-CEM; > 100 µM (inactive) in the experiment on SF-295. Moreover, the GI50 in the experiment on RXF 393 was > 100 µM (inactive); with SNB-19 it was > 100 µM (inactive); with MOLT-4 it was > 100 µM (inactive); in the experiment with NCI-H522 it was 97.9 µM (inactive); with K562, > 100 µM (inactive); with COLO 205, > 100 µM (inactive). Moreover, the GI50 with KM12 is > 100 µM (inactive); in the experiment with SK-MEL-28, > 100 µM (inactive); in the experiment on OVCAR-8, > 100 µM (inactive); in the experiment on UO-31, > 100 µM (inactive); with HCT-15 it was above 100 µM; with HCC 2998, > 100 µM (inactive).

Regarding `COc1cccc2c1C(=O)c1c(O)c3c(c(O)c1C2=O)CC(O)(C(C)=O)CC3O` (stereo not given), the GI50 in the experiment on SNB-75 was 9.68 µM (inactive); in the experiment with SF-268, 4.23 µM (inactive); in the experiment on OVCAR-4 it was 6.34 µM (inactive); in the experiment on HL-60, 3.6 µM (inactive); in the experiment with CCRF-CEM, 1.88 µM (inactive); in the experiment on SF-295, 5.73 µM (inactive). Further, the GI50 is 5.98 µM (inactive) with RXF 393; 6.03 µM (inactive) in the experiment on SNB-19; 1.98 µM (inactive) in the experiment on MOLT-4; 1.03 µM (active) with NCI-H522; 4.34 µM (inactive) in the experiment with K562; 8.07 µM (inactive) in the experiment on SK-MEL-2. Further, the GI50 in the experiment with COLO 205 was 3.02 µM (inactive); in the experiment with KM12, 6.17 µM (inactive); in the experiment with SK-MEL-28 it was 12.7 µM (inactive); with KM-20L2, 6.85 µM (inactive); in the experiment with OVCAR-8, 2.84 µM (inactive); in the experiment on UO-31, 9.57 µM (inactive). The GI50 with HCT-15 is 9.23 µM; in the experiment on HCC 2998 it was 7.24 µM (inactive).

In the case of `CN(C)C(=O)/C=C/c1c[nH]c(=O)[nH]c1=O`, the GI50 with SNB-75 was > 500 µM (inactive); in the experiment with SF-268, > 500 µM (inactive); with OVCAR-4, > 500 µM (inactive); with HL-60 it was 296 µM (inactive); in the experiment on CCRF-CEM, > 500 µM (inactive); in the experiment on SF-295, > 500 µM (inactive). Moreover, the GI50 in the experiment with RXF 393, with SNB-19, in the experiment on MOLT-4, with NCI-H522, in the experiment on K562 and in the experiment on SK-MEL-2 was > 500 µM (inactive) throughout. Also, the GI50 with COLO 205, in the experiment on KM12, in the experiment on SK-MEL-28, in the experiment on KM-20L2, with OVCAR-8 and in the experiment on UO-31 was > 500 µM (inactive) throughout. Further, the GI50 is above 500 µM in the experiment on HCT-15 and > 500 µM (inactive) with HCC 2998.

In the case of `O=C1c2cc3c(cc2[C@@H]2C(O)[C@H]4O[C@H]4C4CCN1C42)OCO3` (stereo not given in full), the GI50 in the experiment on SF-268, in the experiment on OVCAR-4, in the experiment with HL-60, in the experiment on CCRF-CEM, with SF-295 and with SNB-19 was > 37.5 µM (inactive) throughout. Besides, the GI50 with MOLT-4, with NCI-H522, in the experiment on K562, in the experiment with SK-MEL-2, in the experiment on COLO 205 and with KM12 was > 37.5 µM (inactive) throughout. In addition, the GI50 with SK-MEL-28 was > 37.5 µM (inactive); with KM-20L2 it was > 37.5 µM (inactive); in the experiment on OVCAR-8, > 37.5 µM (inactive); in the experiment on UO-31, > 37.5 µM (inactive); with HCT-15 it was above 37.5 µM; in the experiment with HCC 2998, > 37.5 µM (inactive).
